Source: US10975432B2, “Tagged multi-nucleotides useful for nucleic acid sequencing” (Roche Sequencing Solutions, Inc., priority 2016, dated 2021)

Legend:
[1] = test system: α-HL-Pol6 nanopore-polymerase conjugate
[2] = test system: exonuclease deficient variant of the Pol6 polymerase; experiment: Displacement assay of single-, double-, triple- and quadruple-nucleotide substrates (Example 3); assay type: biochemical
Source text: The assay is a displacement assay using an exonuclease deficient variant of the Pol6 polymerase as described in Example 2, wherein polymerase activity is followed by fluorometrically monitoring the change in FRET between the Cy5 and BHQ labels as the polymerase incorporates the substrates in the DNA extension reaction.
Briefly, an assay solution containing the Pol6 polymerase, the 5′-Cy5-labelled displacement DNA template of SEQ ID NO: 124, and the 3′-BHQ-labelled quencher primer of SEQ ID NO: 124 in 75 mM potassium glutamate (“K-Glu”) is prepared in the absence of the substrate or Mg^2+ ion. A substrate solution is prepared containing either the multi-nucleotide compound to be assayed (i.e., “Y-Tag,” “W-Tag,” or “Q-Tag”), the non-tagged dT6P (“Hexa-PO4), or the tagged single nucleotide substrate, dA6P-dT30-C3 (“Full Tag”) of compound (3d). Also included in the substrate solution are the other three nucleotide-hexaphosphate (“dN6P”) substrates required for polymerase synthesis of a strand complementary to the DNA template (i.e., dA6P, dC6P, dG6P). This substrate solution is added to the polymerase solution. Assays are carried out for each of the test substrates at the following initial concentrations: 0.25 μM, 0.5 μM, 1.0 μM, 2.0 μM, 4.0 μM, and 8.0 μM. Additional K-Glu is added to bring the total K-Glu concentration in the mixture up to 300 mM. The polymerase reaction is then initiated by addition of MgCl2. Final concentrations in the assay reaction mixture are: 100 nM Pol6 enzyme, 50 nM Cy5 displacement DNA template, 40 μM each of other dN6P substrates, 300 mM K-Glu, 25 mM HEPES, 0.2 mM EDTA, 0.05% Triton X-100, 5 mM TCEP, 25 μg/mL BSA, 5 mM MgCl2, pH 7.5.

## (dC6P)2-dT20-C3: two dC6P linked via doubler-linker to tag SEQ ID NO: 105 (DNA tttttttttttttttttttt; two dC6P via doubler linker, C3 cap; (20)..(20) T-propanol)
[1]
  Blocking current level: 0.76+/−0.04 Fraction of Open Current

## (dG6P)2-dT6-(Tmp)6-dT8-C3: two dG6P linked via doubler-linker to tag SEQ ID NO: 107 (DNA TTTTTTNNNNNNTTTTTTTT; two dG6P via doubler linker, Tmp, C3 cap; (7)..(12) thymidine methylphosphonate; (20)..(20) T-propanol)
[1]
  Blocking current level: 0.38+/−0.08 Fraction of Open Current

## Cc1cn([C@H]2C[C@H](O)[C@@H](COP(=O)(O)OP(=O)(O)OP(=O)(O)OP(=O)(O)OP(=O)(O)OP(=O)(O)O)O2)c(=O)[nH]c1=O [dT6P]
[2]; Initial Conc. Tag 0.25 μM
  Rate (Bases/sec): 0.57 Bases/sec
[2]; Initial Conc. Tag 0.5 μM
  Rate (Bases/sec): 2.87 Bases/sec
[2]; Initial Conc. Tag 1.0 μM
  Rate (Bases/sec): 3.48 Bases/sec
[2]; Initial Conc. Tag 2.0 μM
  Rate (Bases/sec): 3.89 Bases/sec
[2]; Initial Conc. Tag 4.0 μM
  Rate (Bases/sec): 4.48 Bases/sec
[2]; Initial Conc. Tag 8.0 μM
  Rate (Bases/sec): 4.24 Bases/sec

## (dT6P)2-dT4-(N3CE-dT)3-dT13-C3: two dT6P linked via doubler-linker to tag SEQ ID NO: 106 (DNA TTTTNNNTTTTTTTTTTTTT; chemistry not fully specified)
[1]
  Blocking current level: 0.62+/−0.05 Fraction of Open Current

## (dA6P)2-dT5-(BHEB)-dT14-C3: two dA6P linked via doubler-linker to tag SEQ ID NO: 109 (DNA TTTTTNTTTTTTTTTTTTTT; two dA6P via doubler linker, BHEB, C3 cap, chemistry not fully specified)
[1]
  Blocking current level: 0.88+/−0.03 Fraction of Open Current
